Laboratory results from patent US10077269B2, “Imidazopyridazine compounds” (Pfizer Inc., priority 2014, dated 2018).

Target: Human PDE4D FL (Homo sapiens (Human), UniProt Q08499)
Experiment: PDE4D3 Scintillation Proximity Assay (SPA), inhibition of enzyme activity
Type: biochemical
Details: geometric mean of 2-9 determinations unless otherwise indicated; 1 μM cAMP, 30 min at 25° C.

Chain of Human PDE4D FL (Q08499 186-808): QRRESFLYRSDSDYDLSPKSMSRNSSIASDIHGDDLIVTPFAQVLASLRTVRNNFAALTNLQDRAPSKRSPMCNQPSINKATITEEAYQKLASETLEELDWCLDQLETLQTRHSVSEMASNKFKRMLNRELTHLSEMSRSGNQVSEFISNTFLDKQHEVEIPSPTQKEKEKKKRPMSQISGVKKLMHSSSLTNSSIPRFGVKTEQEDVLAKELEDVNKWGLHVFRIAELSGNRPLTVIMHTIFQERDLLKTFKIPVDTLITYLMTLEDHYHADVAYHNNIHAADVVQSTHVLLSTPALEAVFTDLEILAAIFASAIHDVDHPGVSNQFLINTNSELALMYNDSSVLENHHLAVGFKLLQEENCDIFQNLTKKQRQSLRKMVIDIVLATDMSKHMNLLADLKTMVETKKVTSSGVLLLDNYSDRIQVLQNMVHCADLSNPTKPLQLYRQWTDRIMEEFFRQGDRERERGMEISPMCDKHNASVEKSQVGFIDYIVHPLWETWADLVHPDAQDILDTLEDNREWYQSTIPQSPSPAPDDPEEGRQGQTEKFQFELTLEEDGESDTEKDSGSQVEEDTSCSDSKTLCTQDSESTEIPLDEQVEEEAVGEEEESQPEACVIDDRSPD

| Compound | IC50 [µM] |
| --- | --- |
| O=C(NC1CC1)c1nc2cccnn2c1-c1ccnc(C(F)(F)F)c1 [Example 42, N-cyclopropyl-3-[2-(trifluoromethyl)pyridin-4-yl]imidazo[1,2-b]pyridazine-2-carboxamide] | > 12.2 |
| COC1CN(C(=O)c2nc3cccnn3c2-c2ccc(Cl)cc2)C1 [Example 31, [3-(4-chlorophenyl)imidazo[1,2-b]pyridazin-2-yl](3-methoxyazetidin-1-yl)methanone] | > 26.2 |
